Results taken from patent US20130045952A1, “ABA Receptor Agonists for Increased Plant Stress Resistance” (Van Andel Research Institute, priority 2011, published 2013).

Experiments:
PYR1 = biological target: T1, PYR1 (Arabidopsis thaliana, UniProt O49686); details: in vivo; cited from earlier work
T1 sequence (O49686 1-191): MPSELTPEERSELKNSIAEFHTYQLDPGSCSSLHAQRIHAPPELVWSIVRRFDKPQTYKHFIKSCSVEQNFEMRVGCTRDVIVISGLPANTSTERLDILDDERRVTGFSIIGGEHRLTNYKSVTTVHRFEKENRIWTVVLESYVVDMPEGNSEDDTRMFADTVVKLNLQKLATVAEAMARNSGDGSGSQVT

ABI2 = biological target: T2, ABI2 (Arabidopsis thaliana, UniProt O04719+O49686); experiment: PP2C phosphatase activity assay, ABI2; assay type: biochemical; details: 200 nM PP2C; SnRK2.6 phosphopeptide substrate; None = 100
T2 construct: ABI1 (residues 117-434) and ABI2 (residues 101-423) were expressed as H6Sumo fusion proteins; H6Sumo (N); made in house; host or cells: E. coli BL21
T2 sequence (O04719 101-423 limits assumed): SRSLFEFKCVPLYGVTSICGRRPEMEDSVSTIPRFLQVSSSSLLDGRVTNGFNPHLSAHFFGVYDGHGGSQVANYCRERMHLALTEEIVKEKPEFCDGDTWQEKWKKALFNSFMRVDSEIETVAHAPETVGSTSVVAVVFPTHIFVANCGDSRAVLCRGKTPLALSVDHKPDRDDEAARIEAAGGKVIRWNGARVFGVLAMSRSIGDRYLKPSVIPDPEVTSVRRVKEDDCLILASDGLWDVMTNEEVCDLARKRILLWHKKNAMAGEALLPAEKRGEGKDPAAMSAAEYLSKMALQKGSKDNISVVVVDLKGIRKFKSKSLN
T2 sequence (O49686 1-191): T1 sequence (O49686 1-191)
Experimental: (§1) Mutant proteins were expressed as H6GST-fusion proteins and purified by glutathione sepharose chromatography. Protein-protein interactions were determined by luminescence proximity AlphaScreen assay. Biotinylated PP2C proteins for the luminescence proximity assay were generated by in vivo biotinylation of avitag-PP2C fusion proteins. PP2C phosphatase activity was measured by phosphate release from a SnRK2.6 phosphoprotein.
(§2) PP2Cs and PYR/PYL proteins were pre-incubated at the indicated concentrations in 50 mM imidazole, pH 7.2, 5 mM MgCl2, 0.1% β-mercaptoethanol and 0.5 mg/ml BSA for 30 min at room temperature. Reactions were started by addition of 100 μM of a phosphopeptide corresponding to amino acids 170-180 of SnRK2.6 (HSQPK^pSTVGTP). This peptide is phosphorylated at a single residue corresponding to Ser175 in SnRK2.6, whose phosphorylation is required for SnRK2.6 kinase activity^32. Phosphate release from ^pS175 from the phosphopeptide was determined by colorimetric assay (BioVision).

His6-PYL1 / biotin-PP2C = biological target: T3, His6-PYL1 / biotin-PP2C (Arabidopsis thaliana, UniProt Q8VZS8); experiment: AlphaScreen luminescence proximity assay, PYL1-PP2C interaction; assay type: biochemical; details: for Stimulation of the interaction between PYL1 and PP2C (binding signal): 100 nM His6-PYL1, 100 nM biotin-PP2C, 100 μM agonist, normalized against a pyrabactin control
T3 construct: PYL1 (residues 36-211), PYL2 (residues 14-188), and HAB1 (residues 172-511) were prepared as recombinant proteins in E. coli; made in house; host or cells: E. coli
T3 sequence (Q8VZS8 36-211): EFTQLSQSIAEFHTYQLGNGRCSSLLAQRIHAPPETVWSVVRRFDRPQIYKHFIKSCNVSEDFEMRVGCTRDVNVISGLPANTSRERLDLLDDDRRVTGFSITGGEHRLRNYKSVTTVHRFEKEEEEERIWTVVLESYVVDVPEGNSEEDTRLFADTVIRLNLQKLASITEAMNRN
Experimental: as §1
(§3) Interactions between PYR/PYL and PP2Cs were assessed by luminescence-proximity AlphaScreen technology (Perkin Elmer). Briefly, biotinylated PP2Cs were attached to streptavidin-coated donor beads, and H6-tagged PYR/PYL receptors were attached to nickel-chelated acceptor beads. The donor and acceptor beads were brought into proximity by the interactions between PYR/PYLs and PP2Cs, which were measured with and without ligands. When excited by a laser beam of 680 nm, the donor beam emits singlet oxygen that activates thioxene derivatives in the acceptor beads, which releases photons of 520-620 nm as the binding signal. The experiments were conducted with 100 nM of PP2Cs and PYR/PYL proteins in the presence of 5 ug/ml donor and acceptor beads in a buffer of 50 mM MOPS, pH7.4, 50 mM NaF, […], and 0.1 mg/ml bovine serum albumin. The results were based on an average of three experiments with standard errors typically less than 10% of the measurements.
(§4) Values were determined in different experiments and normalized against a pyrabactin control. Blank spaces mean no experimental data is available. Key (photon counts (binding signal units) in Alphascreen luminescence proximity assay): “+++ is >75,000; ++ is 25,000−75,000; + is <25,000.

HAB1 = biological target: T4, HAB1 (Arabidopsis thaliana, UniProt O49686+Q9CAJ0); experiment: PP2C phosphatase activity assay, HAB1; assay type: biochemical; details: 200 nM PP2C; SnRK2.6 phosphopeptide substrate; None = 100
T4 construct: HAB1 (residues 172-511) were prepared as recombinant proteins in E. coli; H6GST or H6Sumo; made in house; host or cells: E. coli
T4 sequence (Q9CAJ0 172-511 limits assumed): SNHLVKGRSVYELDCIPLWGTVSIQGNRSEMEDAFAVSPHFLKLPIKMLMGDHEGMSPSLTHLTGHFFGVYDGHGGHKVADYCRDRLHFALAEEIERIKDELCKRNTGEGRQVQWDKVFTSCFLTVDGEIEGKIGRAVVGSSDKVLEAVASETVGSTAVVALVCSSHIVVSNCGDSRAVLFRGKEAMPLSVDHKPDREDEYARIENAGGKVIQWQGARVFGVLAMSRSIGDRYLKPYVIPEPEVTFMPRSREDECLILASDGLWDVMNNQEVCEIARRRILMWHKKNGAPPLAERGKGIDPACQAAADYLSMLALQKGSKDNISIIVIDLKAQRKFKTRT
T4 sequence (O49686 1-191): T1 sequence (O49686 1-191)
Experimental: as §1, §2

His6-PYR1 / biotin-PP2C = biological target: T5, His6-PYR1 / biotin-PP2C (Arabidopsis thaliana, UniProt O49686); experiment: AlphaScreen luminescence proximity assay, PYR1-PP2C interaction; assay type: biochemical; details: for Stimulation of the interaction between PYR1 and PP2C (binding signal): 100 nM His6-PYR1, 100 nM biotin-PP2C, 100 μM agonist, normalized against a pyrabactin control
T5 construct: made in house; host or cells: E. coli is stated for PYL1, PYL2 and the PP2Cs, not expressly for PYR1
T5 sequence (O49686 1-191): T1 sequence (O49686 1-191)
Experimental: as §1, §3, §4

His6-PYR1 / biotin-HAB1 = biological target: T6, His6-PYR1 / biotin-HAB1 (Arabidopsis thaliana, UniProt O49686); experiment: AlphaScreen dose response, PYR1-HAB1 interaction; assay type: biochemical; details: 100 nM His6-PYR1, 100 nM biotin-PP2C, 0-100 μM agonist; from dose response curves
T6 construct: made in house; host or cells: E. coli (stated for the PP2Cs; not expressly for PYR1)
T6 sequence (O49686 1-191): T1 sequence (O49686 1-191)
T6 sequence (Q9CAJ0 172-511 partner limits assumed): T4 sequence (Q9CAJ0 172-511 limits assumed)
Experimental: as §3
The results shown in Table 5b were calculated from the dose response curves of the dependence of the interaction between 100 nM His6-PYR1 and 100 nM biotin-PP2C on the presence of 0-100 μM agonists determined by AlphaScreen luminescence proximity assay. Key (EC50 in μM): ++++=<5.0 μM; +++=5-10 μM; ++=10-20 μM; and +=>20-60 μM.

[1] = purified proteins in vitro, HAB1, ABI1, ABI2

| SMILES | Activity at PYR1 in a seed germination assay (PYR1) | % Phosphatase Activity ABI2 (ABI2) | Promotion of PYL1 interaction with the three PP2Cs (His6-PYL1 / biotin-PP2C; [1]) | Agonist activity in wildtype PYL1 (His6-PYL1 / biotin-PP2C; wildtype PYL1) | % Phosphatase Activity HAB1 (HAB1) | Promotion of PYR1 interaction with the three PP2Cs (His6-PYR1 / biotin-PP2C; [1]) | EC50 (His6-PYR1 / biotin-HAB1) | Stimulation of the interaction between PYL1 and PP2C (binding signal) (His6-PYL1 / biotin-PP2C) | Stimulation of the interaction between PYR1 and PP2C (binding signal) (His6-PYR1 / biotin-PP2C) |
| --- | --- | --- | --- | --- | --- | --- | --- | --- | --- |
| O=S(=O)(NCc1ccccn1)c1ccc(Br)c2ccccc12 [Pyrabactin, pyrabactin] | selective agonist | 1.5 ± 0.8% | promoted interaction | very weak | 12.6 ± 0.3% | strongly promoted | < 5 µM | – | – |
| O=C1Nc2ccc(S(=O)(=O)NCc3ccccn3)c3cccc1c23 [Compound 1] | – | 3.2 ± 0.7% | – | – | 16.6 ± 2.0% | – | 20 to 60 µM | + (+ is <25,000) | + (+ is <25,000) |
| CCN1C(=O)c2cccc3c(S(=O)(=O)NC[C@@H]4CCCO4)ccc1c23 [Compound 11] | – | 4.5 ± 0.5% | – | – | 8.8 ± 0.3% | – | 5 to 10 µM | + (+ is <25,000) | +++ (+++ is >75,000) |
| CCOC(=O)CNS(=O)(=O)c1ccc2c3c(cccc13)C(=O)N2CC [Compound 2] | – | 3.8 ± 0.6% | – | – | 6.1 ± 1.9% | – | 5 to 10 µM | + (+ is <25,000) | +++ (+++ is >75,000) |
